# Data taken from ChEMBL document CHEMBL1143751, “Isosteric probes provide structural requirements essential for detoxification of the phytoalexin brassinin by the fungal pathogen Leptosphaeria maculans” (2007).
# Active and inactive are the calls of the source. No cut-off for these calls is given here.
# Assays:
# Plenodomus lingam [1] = test: Specific activity of Leptosphaeria maculans brassinin oxidase
# Plenodomus lingam [2] = test: Antifungal activity against Leptosphaeria maculans BJ 125 at 0.50 mM; type: functional
# Plenodomus lingam [3] = test: Antifungal activity against Leptosphaeria maculans BJ 125 at 0.20 mM; type: functional
# Plenodomus lingam [4] = test: Antifungal activity against Leptosphaeria maculans BJ 125 at 0.10 mM; type: functional
Structure (SMILES),Activity (Plenodomus lingam [1]),inhibition at 500 µM (Plenodomus lingam [2]),inhibition at 200 µM (Plenodomus lingam [3]),inhibition at 100 µM (Plenodomus lingam [4]),Activity (Plenodomus lingam [4])
COC(=O)N(C)Cc1c[nH]c2ccccc12,inactive,–,–,–,–
CSC(=S)N(C)Cc1c[nH]c2ccccc12,inactive,100%,100%,74%,–
CSC(=S)OCCc1c[nH]c2ccccc12,inactive,–,–,–,–
CSC(=S)NCc1cn(C)c2ccccc12,944 mU/mg,–,–,–,–
CSC(=S)NCc1c[nH]c2ccccc12 [BRASSININ],835 mU/mg,100%,45%,–,inactive
COC(=O)NCc1c[nH]c2ccccc12,4060 mU/mg,–,–,–,–
CNC(=O)NCc1c[nH]c2ccccc12,3280 mU/mg,–,–,–,–
CSC(=S)NCCc1c[nH]c2ccccc12,inactive,–,–,–,–
CNC(=O)CCc1c[nH]c2ccccc12,inactive,–,–,–,–
COC(=O)CCc1c[nH]c2ccccc12,inactive,–,–,–,–

# More lines, main results first:
Activity (Plenodomus lingam [1]),Structure (SMILES),inhibition at 500 µM (Plenodomus lingam [2]),inhibition at 200 µM (Plenodomus lingam [3]),inhibition at 100 µM (Plenodomus lingam [4]),Activity (Plenodomus lingam [4])
2560 mU/mg,CNC(=S)NCc1c[nH]c2ccccc12,–,–,–,–
inactive,CC(=O)NCc1c[nH]c2ccccc12,–,–,–,–
inactive,CCCSC(=S)NCc1c[nH]c2ccccc12,100%,100%,78%,–
2150 mU/mg,CSC(=O)NCc1c[nH]c2ccccc12,–,–,–,–
434 mU/mg,CCSC(=S)NCc1c[nH]c2ccccc12,100%,76%,28%,–
